Results on 29 molecules are retold here after US8691865B2 (AbbVie Inc., priority 2008, dated 2014).

A word on the IC50: it is the point on the concentration scale where inhibition reaches its midpoint.

Molecules are shown by their SMILES. Some results are limits rather than exact numbers.

The target in the first assay is human Cav2.2 (Homo sapiens, UniProt Q00975). Put plainly: Assessment of calcium channel activity using FLIPR (Ca2+ influx in IMR32 cells).
Sequence of human Cav2.2 (Q00975 whole entry): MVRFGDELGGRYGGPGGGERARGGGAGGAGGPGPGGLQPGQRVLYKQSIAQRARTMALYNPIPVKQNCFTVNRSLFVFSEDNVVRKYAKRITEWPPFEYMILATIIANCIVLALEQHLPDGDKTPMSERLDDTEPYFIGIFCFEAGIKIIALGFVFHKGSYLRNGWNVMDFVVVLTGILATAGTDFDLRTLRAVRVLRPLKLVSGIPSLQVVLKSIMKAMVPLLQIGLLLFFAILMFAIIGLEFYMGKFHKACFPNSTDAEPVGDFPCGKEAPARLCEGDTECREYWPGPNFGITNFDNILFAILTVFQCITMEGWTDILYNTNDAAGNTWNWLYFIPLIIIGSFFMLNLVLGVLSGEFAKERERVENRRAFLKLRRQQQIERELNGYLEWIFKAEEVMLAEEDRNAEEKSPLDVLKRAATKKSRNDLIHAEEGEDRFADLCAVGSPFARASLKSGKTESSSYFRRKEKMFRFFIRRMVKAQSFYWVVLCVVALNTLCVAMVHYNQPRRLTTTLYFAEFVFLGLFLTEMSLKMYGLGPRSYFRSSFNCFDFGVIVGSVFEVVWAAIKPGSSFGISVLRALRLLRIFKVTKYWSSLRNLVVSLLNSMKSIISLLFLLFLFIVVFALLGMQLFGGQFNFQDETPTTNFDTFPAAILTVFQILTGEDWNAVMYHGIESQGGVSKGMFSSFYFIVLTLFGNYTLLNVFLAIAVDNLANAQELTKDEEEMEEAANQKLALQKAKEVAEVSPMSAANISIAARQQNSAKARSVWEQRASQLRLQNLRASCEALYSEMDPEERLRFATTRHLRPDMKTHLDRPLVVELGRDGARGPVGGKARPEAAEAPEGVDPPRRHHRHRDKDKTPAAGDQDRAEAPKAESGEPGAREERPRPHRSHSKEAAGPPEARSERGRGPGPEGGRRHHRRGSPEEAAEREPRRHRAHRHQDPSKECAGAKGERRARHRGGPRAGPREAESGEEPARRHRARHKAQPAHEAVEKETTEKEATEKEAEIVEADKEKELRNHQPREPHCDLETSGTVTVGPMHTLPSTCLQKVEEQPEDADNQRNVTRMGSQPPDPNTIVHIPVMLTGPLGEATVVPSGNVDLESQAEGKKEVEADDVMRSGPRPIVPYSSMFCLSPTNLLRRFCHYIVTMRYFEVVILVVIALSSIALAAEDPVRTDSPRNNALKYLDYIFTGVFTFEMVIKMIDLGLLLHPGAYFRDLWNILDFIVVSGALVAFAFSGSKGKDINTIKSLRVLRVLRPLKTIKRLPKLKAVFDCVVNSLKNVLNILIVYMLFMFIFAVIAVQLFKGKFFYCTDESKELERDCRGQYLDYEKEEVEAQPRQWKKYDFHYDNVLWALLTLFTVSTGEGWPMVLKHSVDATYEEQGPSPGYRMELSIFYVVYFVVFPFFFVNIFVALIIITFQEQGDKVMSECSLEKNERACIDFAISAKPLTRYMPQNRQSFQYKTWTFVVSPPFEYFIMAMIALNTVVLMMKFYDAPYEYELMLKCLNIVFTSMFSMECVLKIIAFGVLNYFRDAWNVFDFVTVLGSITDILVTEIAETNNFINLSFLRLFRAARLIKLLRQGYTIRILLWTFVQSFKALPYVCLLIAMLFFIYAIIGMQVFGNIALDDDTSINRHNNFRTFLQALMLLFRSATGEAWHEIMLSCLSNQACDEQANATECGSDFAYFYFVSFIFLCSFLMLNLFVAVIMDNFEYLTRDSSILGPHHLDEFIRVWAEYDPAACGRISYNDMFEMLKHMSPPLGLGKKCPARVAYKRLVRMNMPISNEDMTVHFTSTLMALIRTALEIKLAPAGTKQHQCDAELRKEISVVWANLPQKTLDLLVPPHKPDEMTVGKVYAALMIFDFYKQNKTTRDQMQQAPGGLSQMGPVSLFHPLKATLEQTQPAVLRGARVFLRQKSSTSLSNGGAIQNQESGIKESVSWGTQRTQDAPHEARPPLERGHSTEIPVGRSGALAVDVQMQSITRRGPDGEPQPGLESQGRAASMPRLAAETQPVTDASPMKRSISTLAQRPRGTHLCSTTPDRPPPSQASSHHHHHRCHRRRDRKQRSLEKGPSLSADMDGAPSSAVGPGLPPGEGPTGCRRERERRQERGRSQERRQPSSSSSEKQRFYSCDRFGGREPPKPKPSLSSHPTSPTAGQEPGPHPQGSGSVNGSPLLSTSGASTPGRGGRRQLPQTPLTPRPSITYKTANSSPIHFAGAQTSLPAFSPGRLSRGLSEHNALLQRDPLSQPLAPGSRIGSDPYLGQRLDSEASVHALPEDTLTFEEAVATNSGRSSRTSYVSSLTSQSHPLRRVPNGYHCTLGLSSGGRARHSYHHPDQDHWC
Sequence of human Cav2.2 (P54289 25-956 partner limits assumed): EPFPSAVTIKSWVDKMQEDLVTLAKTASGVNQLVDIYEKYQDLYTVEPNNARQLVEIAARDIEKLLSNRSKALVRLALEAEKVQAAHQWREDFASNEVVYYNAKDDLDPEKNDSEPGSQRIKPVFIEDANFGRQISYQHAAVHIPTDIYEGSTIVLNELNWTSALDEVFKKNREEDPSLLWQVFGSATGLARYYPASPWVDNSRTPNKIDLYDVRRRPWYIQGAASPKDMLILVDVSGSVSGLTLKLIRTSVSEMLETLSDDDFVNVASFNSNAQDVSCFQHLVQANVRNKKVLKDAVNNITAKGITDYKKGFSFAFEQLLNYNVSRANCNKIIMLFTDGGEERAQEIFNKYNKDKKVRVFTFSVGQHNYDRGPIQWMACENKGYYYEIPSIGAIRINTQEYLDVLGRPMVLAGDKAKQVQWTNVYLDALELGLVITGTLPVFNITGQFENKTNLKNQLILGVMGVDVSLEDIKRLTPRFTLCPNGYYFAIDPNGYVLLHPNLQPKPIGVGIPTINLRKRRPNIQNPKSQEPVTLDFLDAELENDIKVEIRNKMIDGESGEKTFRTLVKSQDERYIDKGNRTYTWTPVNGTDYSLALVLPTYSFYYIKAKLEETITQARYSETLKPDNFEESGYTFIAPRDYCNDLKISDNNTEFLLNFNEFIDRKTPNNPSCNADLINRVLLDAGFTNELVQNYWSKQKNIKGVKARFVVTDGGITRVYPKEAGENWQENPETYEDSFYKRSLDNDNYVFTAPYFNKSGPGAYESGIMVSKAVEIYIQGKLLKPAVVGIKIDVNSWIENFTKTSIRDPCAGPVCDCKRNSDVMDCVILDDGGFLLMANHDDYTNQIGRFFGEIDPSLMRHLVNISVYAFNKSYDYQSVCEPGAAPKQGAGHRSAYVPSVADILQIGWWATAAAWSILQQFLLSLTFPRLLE
Sequence of human Cav2.2 (P54289 957-1103 partner limits assumed): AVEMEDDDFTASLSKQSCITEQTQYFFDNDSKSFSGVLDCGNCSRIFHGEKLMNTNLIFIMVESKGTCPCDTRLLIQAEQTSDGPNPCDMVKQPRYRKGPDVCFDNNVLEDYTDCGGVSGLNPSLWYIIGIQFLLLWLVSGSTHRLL
Sequence of human Cav2.2 (P54284 whole entry partner): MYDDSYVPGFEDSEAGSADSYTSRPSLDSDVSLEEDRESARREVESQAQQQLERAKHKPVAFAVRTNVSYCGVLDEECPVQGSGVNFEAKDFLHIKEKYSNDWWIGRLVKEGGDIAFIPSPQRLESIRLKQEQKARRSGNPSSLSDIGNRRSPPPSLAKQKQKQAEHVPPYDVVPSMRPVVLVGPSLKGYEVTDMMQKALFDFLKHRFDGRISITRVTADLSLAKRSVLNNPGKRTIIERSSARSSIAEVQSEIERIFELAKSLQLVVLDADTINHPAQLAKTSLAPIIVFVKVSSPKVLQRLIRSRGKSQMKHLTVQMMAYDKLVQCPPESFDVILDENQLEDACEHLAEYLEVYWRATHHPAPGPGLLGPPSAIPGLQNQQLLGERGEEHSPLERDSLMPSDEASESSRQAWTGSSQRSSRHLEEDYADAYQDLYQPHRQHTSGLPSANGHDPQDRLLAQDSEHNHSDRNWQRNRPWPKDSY
Conditions: not given
The assay is classed as cell-based. As for the experimental part: (i) In Vitro Methods—Assessment of Calcium Channel Activity Using FLIPR:
The IMR32 cells were maintained in MEM media containing 10% (v/v) FBS, 1% (v/v) antibiotic/antimitotic, 1% (v/v) sodium pyruvate and 1% (v/v) MEM NEAA. Following dissociation in 0.05% (v/v) trypsin/EDTA, cells were seeded into black 1×96-well plates (Corning Cellbind) at a density of 1−1.2×10^5 cells/well and incubated in the maintenance media above for 48 hours at 37° C. […] To determine the IC50 values, the percent inhibition of the compound at each concentration was determined relative to the activity in the absence of inhibitor, and data was fitted using non-linear regression sigmoidal dose response curve analysis with GraphPad Prism®.
Take `FC(F)(F)c1cccc(N2C[C@H]3CC[C@H](NCc4ccc5nsnc5c4)[C@H]3C2)n1` [Example 732, (3aR,4S,6aS)-N-(2,1,3-benzothiadiazol-5-ylmethyl)-2-[6-(trifluoromethyl)pyridin-2-yl]octahydrocyclopenta[c]pyrrol-4-amine]: the IC50 is 0.56 µM.

Take `CN[C@H](CC(C)C)C(=O)N[C@H]1CC[C@@H]2CN(c3ccc(C(F)(F)F)cc3)C[C@@H]21` [Example 760, N^2-methyl-N-{(3aR,4S,6aS)-2-[4-(trifluoromethyl)phenyl]octahydrocyclopenta[c]pyrrol-4-yl}-D-leucinamide]: the half-inhibitory concentration (IC50) came to 2.32 µM.

Take `CCCC[C@H](NC)C(=O)N[C@H]1CC[C@@H]2CN(c3ccc(C(F)(F)F)cn3)C[C@@H]21` [Example 601, N^2-methyl-N-{(3aR,4S,6aS)-2-[5-(trifluoromethyl)pyridin-2-yl]octahydrocyclopenta[c]pyrrol-4-yl}-L-norleucinamide]: the IC50 amounted to 2.11 µM.

Turning to `CCC[C@H](NC)C(=O)N[C@@H]1CC[C@H]2CN(Cc3ccc(F)cc3)C[C@H]21` [Example 372, N^1-[(3aS,4R,6aR)-2-(4-fluorobenzyl)octahydrocyclopenta[c]pyrrol-4-yl]-N^2-methyl-L-norvalinamide], the half-maximal inhibitory concentration (IC50) was more than 9 µM.

Turning to `O=C(CC(c1ccccc1)c1ccccc1)N[C@H]1CC[C@H]2CN(Cc3cccc(C(F)(F)F)c3)C[C@H]21` (relative stereo) [Example 131, 3,3-diphenyl-N-{(3aS*,4S*,6aR*)-2-[3-(trifluoromethyl)benzyl]octahydrocyclopenta[c]pyrrol-4-yl}propanamide], the IC50 was determined as 0.66 µM.

Take `CC(C)C[C@@H](C(=O)N[C@@H]1CC[C@H]2CN(S(C)(=O)=O)C[C@H]21)N1CCCC1` [Example 346, (2S)-4-methyl-N-[(3aS,4R,6aR)-2-(methylsulfonyl)octahydrocyclopenta[c]pyrrol-4-yl]-2-pyrrolidin-1-ylpentanamide]: the 50% inhibitory concentration (IC50) was more than 30 µM.

For `O=C(N[C@H]1CC[C@@H]2CN(c3ccccc3F)C[C@@H]21)[C@@H]1C[C@@H](F)CN1` [Example 661, (4R)-4-fluoro-N-[(3aR,4S,6aS)-2-(2-fluorophenyl)octahydrocyclopenta[c]pyrrol-4-yl]-L-prolinamide], the IC50 amounted to 14.7 µM.

In the case of `CN[C@@H](CO)C(=O)N[C@H]1CC[C@@H]2CN(c3ccc(C(F)(F)F)cc3)C[C@@H]21` [Example 749, N^2-methyl-N-{(3aR,4S,6aS)-2-[4-(trifluoromethyl)phenyl]octahydrocyclopenta[c]pyrrol-4-yl}-L-serinamide], the concentration for half-maximal inhibition (IC50) is more than 3 µM.

For the molecule `O=C(N[C@H]1CC[C@H]2CN(Cc3cccc(C(F)(F)F)c3)C[C@H]21)C1CCCCC1` (relative stereo) [Example 127, N-{(3aS*,4S*,6aR*)-2-[3-(trifluoromethyl)benzyl]octahydrocyclopenta[c]pyrrol-4-yl}cyclohexanecarboxamide], the IC50 worked out at 1.26 µM.

Take `FC(F)(F)c1cccc(N2C[C@H]3CC[C@H](NCc4c[nH]nc4-c4cccs4)[C@H]3C2)n1` [Example 669, (3aR,4S,6aS)-N-{[3-(2-thienyl)-1H-pyrazol-4-yl]methyl}-2-[6-(trifluoromethyl)pyridin-2-yl]octahydrocyclopenta[c]pyrrol-4-amine]: the half-inhibitory concentration (IC50) turned out to be 0.8 µM.

On to `CC(C)C[C@H](NC(=O)OC(C)(C)C)C(=O)N[C@@H]1CC[C@@H]2CN(Cc3cccc(C(F)(F)F)c3)C[C@@H]21` (stereo in doubt) [Example 137, N^2-(tert-butyloxycarbonyl)-N^1-{(3aR*,4R*,6aS*)-2-[3-(trifluoromethyl)benzyl]octahydrocyclopenta[c]pyrrol-4-yl}-L-leucinamide], for which the half-maximal inhibitory concentration (IC50) was 0.65 µM.

Regarding `FC(F)(F)c1cccc(N2C[C@H]3CC[C@H](NCc4c[nH]nn4)[C@H]3C2)n1` [Example 694, (3aR,4S,6aS)-N-(1H-1,2,3-triazol-4-ylmethyl)-2-[6-(trifluoromethyl)pyridin-2-yl]octahydrocyclopenta[c]pyrrol-4-amine], the concentration for half-maximal inhibition (IC50) was determined as 4 µM.

As for `CN[C@@H](CC(C)C)C(=O)N[C@H]1CC[C@@H]2CN(c3ccccc3OC(F)(F)F)C[C@@H]21` [Example 699, N^2-methyl-N-{(3aR,4S,6aS)-2-[2-(trifluoromethoxy)phenyl]octahydrocyclopenta[c]pyrrol-4-yl}-L-leucinamide], the IC50 came to 0.65 µM.

Regarding `CC(C)C(C(=O)N[C@H]1CC[C@H]2CN(Cc3cccc(C(F)(F)F)c3)C[C@H]21)c1ccccc1` (relative stereo) [Example 122, 3-methyl-2-phenyl-N-{(3aS*,4S*,6aR*)-2-[3-(trifluoromethyl)benzyl]octahydrocyclopenta[c]pyrrol-4-yl}butanamide], the IC50 is 0.36 µM.

Turning to `CN[C@@H](CC(C)C)C(=O)N[C@H]1CC[C@@H]2CN(c3ccnc(C(F)(F)F)n3)C[C@@H]21` [Example 723, N^2-methyl-N-{(3aR,4S,6aS)-2-[2-(trifluoromethyl)pyrimidin-4-yl]octahydrocyclopenta[c]pyrrol-4-yl}-L-leucinamide], the half-inhibitory concentration (IC50) turned out to be 11.9 µM.

On to `N#Cc1ccc(N2C[C@H]3CC[C@H](NC(=O)[C@@H]4C[C@@H](F)CN4)[C@H]3C2)cc1` [Example 633, (4R)-N-[(3aR,4S,6aS)-2-(4-cyanophenyl)octahydrocyclopenta[c]pyrrol-4-yl]-4-fluoro-L-prolinamide], for which the concentration for half-maximal inhibition (IC50) worked out at 26.2 µM.

Still in this assay, the particulars now being: IC50 (μM) or percent inhibition (* indicates 3 minute incubation, otherwise 60 minute), IC50; 3 minute pre-incubation (*); IMR32 cells, 80 mM KCl depolarization.
For the molecule `CC(C)C(C(=O)N[C@H]1CC[C@@H]2CN(CC3CCCCC3)C[C@@H]21)c1ccccc1` (stereo partly drawn) [Example 83, N-[(3aR,4S,6aS)-2-(cyclohexylmethyl)octahydrocyclopenta[c]pyrrol-4-yl]-3-methyl-2-phenylbutanamide], the IC50 was 2.6 µM.

The same assay, now with this note: read-out: IC50 (μM) or percent inhibition (* indicates 3 minute incubation, otherwise 60 minute); IC50; 60 minute pre-incubation with compound; IMR32 cells, 80 mM KCl depolarization.
In the case of `CC(C)C[C@H](NCC(C)(C)C)C(=O)N[C@H]1CC[C@@H]2CN(Cc3ccccc3)C[C@@H]21` [Example 244, N^1-[(3aR,4S,6aS)-2-benzyloctahydrocyclopenta[c]pyrrol-4-yl]-N^2-neopentyl-L-leucinamide], the IC50 was 9.11 µM.

As to `CC(C)C[C@@H](C(=O)N[C@@H]1CC[C@H]2CN(Cc3ccccc3)C[C@H]21)N(C)C(=O)OC(C)(C)C` [Example 151, N^1-[(3aS,4R,6aR)-2-benzyloctahydrocyclopenta[c]pyrrol-4-yl]-N^2-(tert-butyloxycarbonyl)-N^2-methyl-L-leucinamide], the half-maximal inhibitory concentration (IC50) came out at 0.71 µM.

For `CN(C(=O)OC(C)(C)C)[C@@H](CC(C)(C)C)C(=O)N(CC1CC1)[C@H]1CC[C@@H]2CN(S(=O)(=O)c3ccc(C(F)(F)F)cc3)C[C@@H]21` [Example 298], the IC50 came to 8.99 µM.

Take `CCN(CC)[C@H]1CC[C@@H]2CN(S(=O)(=O)c3ccc(C(F)(F)F)cc3)C[C@@H]21` [Example 289, (3aR,4S,6aS)-N,N-diethyl-2-{[4-(trifluoromethyl)phenyl]sulfonyl}octahydrocyclopenta[c]pyrrol-4-amine]: the half-maximal inhibitory concentration (IC50) turned out to be 9.75 µM.

In the case of `CC(C)C[C@H](NS(C)(=O)=O)C(=O)N[C@@H]1CC[C@H]2CN(Cc3ccccc3)C[C@H]21` [Example 243, N^1-[(3aS,4R,6aR)-2-benzyloctahydrocyclopenta[c]pyrrol-4-yl]-N^2-(methylsulfonyl)-L-leucinamide], the 50% inhibitory concentration (IC50) was determined as 8.58 µM.

For `CC(C)(C)C[C@H](N)C(=O)N[C@H]1CC[C@@H]2CN(Cc3ccccc3)C[C@@H]21` [Example 361, N^1-[(3aR,4S,6aS)-2-benzyloctahydrocyclopenta[c]pyrrol-4-yl]-4-methyl-L-leucinamide], the IC50 was 24.7 µM.

Consider `O=S(=O)(c1ccc(C(F)(F)F)cc1Cl)N1C[C@H]2CC[C@H](Nc3ccc(C(F)(F)F)cn3)[C@H]2C1` [Example 295, (3aR,4S,6aS)-2-{[2-chloro-4-(trifluoromethyl)phenyl]sulfonyl}-N-[5-(trifluoromethyl)pyridin-2-yl]octahydrocyclopenta[c]pyrrol-4-amine], for which the half-maximal inhibitory concentration (IC50) was found to be 2.98 µM.

As for `O=C(N[C@@H]1CC[C@H]2CN(Cc3ccccc3)C[C@H]21)C(c1ccccc1)C1CCCC1` (stereo partly drawn) [Example 17, N-[(3aS,4R,6aR)-2-benzyloctahydrocyclopenta[c]pyrrol-4-yl]-2-cyclopentyl-2-phenylacetamide], the IC50 was found to be 1.57 µM.

In the case of `O=S(=O)(N[C@H]1CC[C@H]2CN(CCCCO)C[C@H]21)c1cccc(C(F)(F)F)c1` [Example 195, N-[(3aS,4S,6aR)-2-(4-hydroxybutyl)octahydrocyclopenta[c]pyrrol-4-yl]-3-(trifluoromethyl)benzenesulfonamide], the IC50 stood at 22.1 µM.

Turning to `O=C(CCCCC(c1ccc(F)cc1)c1ccc(F)cc1)N[C@@H]1CC[C@H]2CN(Cc3cccc(C(F)(F)F)c3)C[C@H]21` (relative stereo) [Example 140, 6,6-bis(4-fluorophenyl)-N-{(3aS*,4R*,6aR*)-2-[3-(trifluoromethyl)benzyl]octahydrocyclopenta[c]pyrrol-4-yl}hexanamide], the IC50 amounted to 0.62 µM.

Take `O=S(=O)(c1cccc(C(F)(F)F)c1)N1C[C@H]2CC[C@H](NC(c3ccccc3)c3ccccc3)[C@H]2C1` [Example 468, (3aR,4S,6aS)-N-benzhydryl-2-{[3-(trifluoromethyl)phenyl]sulfonyl}octahydrocyclopenta[c]pyrrol-4-amine]: the IC50 worked out at 2.26 µM.

Regarding `CC(C)C[C@H](NC(=O)NC1CCCC1)C(=O)N[C@@H]1CC[C@H]2CN(Cc3cccc(C(F)(F)F)c3)C[C@H]21` [Example 181, N^2-[(cyclopentylamino)carbonyl]-N^1-{(3aS,4R,6aR)-2-[3-(trifluoromethyl)benzyl]octahydrocyclopenta[c]pyrrol-4-yl}-L-leucinamide], the IC50 was determined as 0.94 µM.
